# Like-named read-outs stand apart in the source and are kept apart here. Marks after values point to notes of the source that are not given here.
# How the values were obtained:
# [1] = tested on: TRAMP-C2 tumor cells; assay: Orthotopic prostate cancer survival study, TRAMP-C2 cells in C57BL/6 mice; type: in vivo, mouse; settings: 1 mg/kg per oral plus castration; p<0.001
# Procedure: Orthotopic injection of PTEN-P2 and TRAMP-C2 for survival studies: Mice were anaesthetized and an incision was made through the skin and peritoneum. A total of 30,000 cells were suspended in Matrigel and slowly injected into the dorsal lobe of the prostate using a 30-gauge needle. Matrigel was used to prevent the leakage of cells out of the site of injection. A Q-tip was held over the injection site for 1 min to prevent bleeding and spill after removal of the needle. The abdominal wall was closed by surgical silk sutures.
# Fox1/Nu or C57BL/6J mice were used as recipients for PTEN-P2 and TRAMP-C2 cells, respectively. Mice were surgically castrated 6 weeks later, when tumors were established, and Compound I treatment was initiated 4-5 days later. The number of days mice lived following treatment initiation was recorded for each animal. A few mice were found dead upon daily inspection, while others were euthanized in agreement with our IACUC regulations, including mice showing weight losses of more than 15% and mice showing signs of pain though posture and lack of grooming were euthanized.
# A second study, shown in FIG. 6, used cells derived from the transgenic adenocarcinoma of the mouse prostate (TRAMP) model. The TRAMP model was generated through prostate-specific expression of the large T antigen of SV40 in the prostate epithelium. […]
# [2] = 5 mg/g
# [3] = tested on: rat; settings: suspension in 0.5% of gum acacia in water or in propylene glycol, oral; cited from earlier work
compound,measurement,setting,value
"CC1=CC(=O)c2c(O)cccc2C1=O [Compound I, 5-hydroxy-2-methylnaphthalene-1,4-dione]",Longer survival of 50% of the combination-treated mice vs castration alone,[1],200 days
same,"Solution Stability in Aqueous Media, % Potency",[2]; 0 week,92.86%
same,"Solution Stability in Aqueous Media, % Potency","[2]; 0 week, pH 1",99.62%
same,"Solution Stability in Aqueous Media, % Potency","[2]; 0 week, pH 2",98.23%
same,"Solution Stability in Aqueous Media, % Potency","[2]; 0 week, pH 3",96.53%
same,"Solution Stability in Aqueous Media, % Potency","[2]; 0 week, pH 4",96.76%
same,"Solution Stability in Aqueous Media, % Potency","[2]; 0 week, pH 5",97.34%
same,"Solution Stability in Aqueous Media, % Potency","[2]; 0 week, pH 6",94.27%
same,"Solution Stability in Aqueous Media, % Potency","[2]; 0 week, pH 7",87.84%
same,"Solution Stability in Aqueous Media, % Potency","[2]; 0 week, pH 8",78.28%
same,"Solution Stability in Aqueous Media, % Potency","[2]; 0 week, pH 9",85.90%
same,"Solution Stability in Aqueous Media, % Potency","[2]; 0 week, pH 10",86.55%
same,"Solution Stability in Aqueous Media, % Potency","[2]; 1 week, pH 7",<10%
same,"Solution Stability in Aqueous Media, % Potency","[2]; 1 week, pH 8",<10%
same,"Solution Stability in Aqueous Media, % Potency","[2]; 2 week, pH 7",<10^‡ %
same,"Solution Stability in Aqueous Media, % Potency","[2]; 2 week, pH 8",<10^‡ %
same,"Solution Stability in Aqueous Media, % Potency","[2]; 2 week, pH 9",<10^‡ %
same,"Solution Stability in Aqueous Media, % Potency","[2]; 2 week, pH 10",<10^‡ %
same,Initial Compound I remaining in the solution,"[2]; buffer, 168 h, pH 7",less than 10%
same,LD50,[3],65 mg/kg

# From patent US20180221306A1, “PHARMACEUTICAL COMPOSITIONS OF 5-HYDROXY-2-METHYLNAPHTHALENE-1,4-DIONE” (PellFiCure Pharmaceuticals, Inc., priority 2016, published 2018)
